Measured values taken from US9206159B2, “Piperazine-piperidine compounds as hepatitis C virus inhibitors” (Theravance Biopharma R&D IP, LLC, priority 2012, dated 2015).

Columns and labels:
[1] = test system: HCV genotype 1b replicon cell line; test: HCV Genotype 1b Replicon Assay; type: cell-based, hepatitis C virus; settings: Renilla luciferase readout, 48 hours; for Genotype 1b (pEC50 class): Huh7 cell background; for EC50: Hepatitis C virus, Huh-7, Huh7 cell background, read-out: Genotype 1b (pEC50 class) (converted)
Source text: Assay 1: HCV Genotype 1b Replicon Assay
The HCV genotype 1b replicon cell line was obtained from Apath LLC (Brooklyn, N.Y.) (APC144; Huh7 cell background). This subgenomic replicon contains the N-terminus of the HCV core protein fused to the neomycin-resistance selectable marker. The EMCV IRES lies downstream and drives expression of humanized Renilla luciferase fused to the non-structural proteins NS3-NS5B. This cell line was used to determine compound potency using the luciferase activity readout as a measurement of compound inhibition of replicon levels.
Cells were grown at 37° C. in a 5% CO2 humidified incubator in DMEM (Invitrogen) with 10% FBS (HyClone), 1×NEAA (Invitrogen), 1× Pen-Strep (Invitrogen), and 500 μg/mL G418 (Invitrogen). On day 1 of the assay, cells were plated at 10,000 cells/well in white 96-well tissue culture plates (Costar) in 200 μL media lacking G418. Four hours later, once the cells have adhered, the media was removed and replaced with media (no G418) containing dose-responses of test compounds. Compounds were initially diluted in DMSO and then diluted another 200× in media to bring the final DMSO concentration down to 0.5%. The cells were incubated with test compounds for 48 hours. At the end of the incubation period, media and compound were removed from the plates and the luciferase activity was determined using Promega Renilla-Glo reagents.
To analyze the data, the luciferase activity was plotted vs. the compound concentration, and EC50 values were determined from a 4-parameter robust fit model with the GraphPad Prism software package (GraphPad Software, Inc., San Diego, Calif.). Results are expressed as the negative decadic logarithm of the EC50 value, pEC50.
Test compounds having a higher pEC50 value in this assay show greater inhibition of HCV genotype 1b replication.

[2] = test system: HCV genotype 1a replicon cell line; test: HCV Genotype 1a Replicon Assay; type: cell-based, hepatitis C virus; settings: Huh7.5 cell background, NS3-specific protease activity in lysates, 48 or 72 hours; for EC50: Hepatitis C virus, read-out: Genotype 1a (pEC50 class) (converted)
In short: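 Huh7.5-based subgenomic genotype 1a replicon cells, plated without G418, exposed to compound dose-responses (0.5% DMSO final) for 48 or 72 h at 37 °C. Lysate NS3/4a protease activity read with 15 μM FRET substrate, 20 min at 37 °C (Ex 340/Em 509 nm); EC50 from 4-parameter fit.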

| SMILES | Genotype 1b (pEC50 class) [1] | Genotype 1a (pEC50 class) [2] | EC50 [1] [nM] | EC50 [2] [nM] |
| --- | --- | --- | --- | --- |
| COC(=O)N[C@H](C(=O)N1CCC[C@H]1c1nc(-c2ccc(-c3ccc(NC(=O)N4CCN(C5CCN(C(=O)C(C)(C)CO)CC5)CC4)cc3OC(F)(F)F)cc2)c[nH]1)C(C)C [Example 1-17] | D (D represents pEC50>10 (EC50<0.1 nM)) | C (C represents pEC50 between and 9 and about 10, (EC50 between 1 nM and 0.1 nM)) | – | – |
| COC(=O)N[C@H](C(=O)N1C[C@@H](C)C[C@H]1c1nc(-c2ccc(-c3cc(F)c(NC(=O)N4CCN(C5CCN(C(=O)C(C)(C)C)CC5)CC4)cc3OC(F)(F)F)cc2)c[nH]1)C(C)C [Example 2-5] | D (D represents pEC50>10 (EC50<0.1 nM)) | D (D represents pEC50>10 (EC50<0.1 nM)) | – | – |
| COC(=O)N[C@H](C(=O)N1C[C@@H](C)C[C@H]1c1nc(-c2ccc(-c3ccc(NC(=O)N4CCN(C5CCN(C(=O)C(C)(C)C)CC5)CC4)cc3OC(F)(F)F)cc2)c[nH]1)C(C)C [Example 2-9] | D (D represents pEC50>10 (EC50<0.1 nM)) | D (D represents pEC50>10 (EC50<0.1 nM)) | – | – |
| COC(=O)N[C@H](C(=O)N1C[C@@H](C)C[C@H]1c1nc(-c2ccc(-c3cc(F)c(NC(=O)N4CCN(C5CCN(C(=O)[C@H]6CC6(C)C)CC5)CC4)cc3OC(F)(F)F)cc2)c[nH]1)C(C)C [Example 2-16] | D (D represents pEC50>10 (EC50<0.1 nM)) | D (D represents pEC50>10 (EC50<0.1 nM)) | – | – |
| COC(=O)N[C@H](C(=O)N1C[C@@H](C)C[C@H]1c1nc(-c2ccc(-c3ccc(NC(=O)N4CCN(C5CCN(C(=O)[C@H]6CC6(C)C)CC5)CC4)cc3OC(F)(F)F)cc2)c(Cl)[nH]1)C(C)C [Example 2-17] | D (D represents pEC50>10 (EC50<0.1 nM)) | D (D represents pEC50>10 (EC50<0.1 nM)) | – | – |
| COC(=O)N[C@H](C(=O)N1C[C@@H](C)C[C@H]1c1nc(-c2ccc(-c3ccc(NC(=O)N4CCN(C5CCN(C(=O)C6CCC6)CC5)CC4)cc3OC(F)(F)F)cc2)c[nH]1)C(C)C [Example 2-19] | D (D represents pEC50>10 (EC50<0.1 nM)) | C (C represents pEC50 between and 9 and about 10, (EC50 between 1 nM and 0.1 nM)) | – | – |
| [2H]C([2H])([2H])C1(C([2H])([2H])[2H])CC1C(=O)N1CCC(N2CCN(C(=O)Nc3ccc(-c4ccc(-c5c[nH]c([C@@H]6C[C@H](C)CN6C(=O)[C@@H](NC(=O)OC)C(C)C)n5)cc4)c(OC(F)(F)F)c3)CC2)CC1 (stereo partly drawn) [Example 2-20] | D (D represents pEC50>10 (EC50<0.1 nM)) | D (D represents pEC50>10 (EC50<0.1 nM)) | – | – |
| COC(=O)N[C@H](C(=O)N1C[C@@H](C)C[C@H]1c1nc(-c2ccc(-c3ccc(NC(=O)N4CCN(C5CCN(C(=O)OC(C)(C)C)CC5)CC4)cc3OC(F)(F)F)cc2)c[nH]1)C(C)C [Example 2-21] | D (D represents pEC50>10 (EC50<0.1 nM)) | D (D represents pEC50>10 (EC50<0.1 nM)) | – | – |
| COC(=O)N[C@H](C(=O)N1CCC[C@H]1c1nc(-c2ccc(-c3ccc(NC(=O)N4CCC(N5CCN(C(=O)[C@H]6CC6(C)C)CC5)CC4)cc3)cc2)c[nH]1)C(C)C [Example 3-2] | D (D represents pEC50>10 (EC50<0.1 nM)) | B (B represents pEC50 between 8 and 9 (EC50 between 1 and 10 nM)) | – | – |
| COC(=O)N[C@H](C(=O)N1C[C@@H](C)C[C@H]1c1nc2c(ccc3cc(-c4ccc(NC(=O)N5CCN(C6CCN(C(=O)[C@H]7CC7(C)C)CC6)CC5)cc4OC(F)(F)F)ccc32)[nH]1)C(C)C [Example 6-1] | D (D represents pEC50>10 (EC50<0.1 nM)) | D (D represents pEC50>10 (EC50<0.1 nM)) | – | – |
| COC(=O)N[C@H](C(=O)N1C[C@@H](C)C[C@H]1c1nc2c(ccc3cc(-c4ccc(NC(=O)N5CCN(C6CCN(C(=O)C(C)(C)CO)CC6)CC5)cc4OC(F)(F)F)ccc32)[nH]1)C(C)C [Example 6-4] | – | – | < 0.1 | < 0.1 |
| COC(=O)N[C@H](C(=O)N1C[C@@H](C)C[C@H]1c1nc(-c2ccc(-c3ccc(NC(=O)N4CCN(C5CCN(C(=O)C(C)(C)C)CC5)CC4)cc3OC(F)(F)F)cc2)c(Cl)[nH]1)C(C)C [Example 7, [(S)-1-((2S,4S)-2-{5-Chloro-4-[4′-({4-[1-(2,2-dimethyl-propionyl)-piperidin-4-yl]-piperazine-1-carbonyl}-amino)-2′-trifluoromethoxy-biphenyl-4-yl]-1H-imidazol-2-yl}-4-methyl-pyrrolidine-1-carbonyl)-2-methyl-propyl]-carbamic acid methyl ester] | – | – | < 0.1 | < 0.1 |
| COC(=O)N[C@H](C(=O)N1C[C@@H](C)C[C@H]1c1nc(-c2ccc(-c3ccc(NC(=O)N4CCC(N5CCN(C(=O)C(C)(C)CO)CC5)CC4)cc3OC(F)(F)F)cc2)c[nH]1)C1CCOCC1 [Example 9-1] | D (D represents pEC50>10 (EC50<0.1 nM)) | C (C represents pEC50 between and 9 and about 10, (EC50 between 1 nM and 0.1 nM)) | – | – |
| COC(=O)N[C@H](C(=O)N1C[C@@H](C)C[C@H]1c1nc(-c2ccc(-c3ccc(NC(=O)N4CCC(N5CCN(C(=O)C(C)(C)C)CC5)CC4)cc3OC(F)(F)F)cc2)c(F)[nH]1)C1CCOCC1 [Example 9-2] | – | – | < 0.1 | < 0.1 |
| COC(=O)N[C@H](C(=O)N1C[C@@H](C)C[C@H]1c1nc(-c2ccc(-c3ccc(NC(=O)N4CCC(N5CCN(C(=O)C(C)(C)CO)CC5)CC4)cc3OC(F)(F)F)cc2)c(F)[nH]1)C1CCOCC1 [Example 9-3] | – | – | < 0.1 | 0.1 to 1 |
| COC(=O)N[C@H](C(=O)N1C[C@@H](C)C[C@H]1c1nc(-c2ccc(-c3cc(Cl)c(NC(=O)N4CCC(N5CCN(C(=O)[C@H]6CC6(C)C)C[C@@H]5C)CC4)cc3OC(F)(F)F)cc2)c[nH]1)C(C)C [Example 11, ((S)-1-{(2S,4S)-2-[4-(5′-Chloro-4′-{[4-((S)-4-dimethylcyclopropane-carbonyl-2-methyl-piperazin-1-yl)-piperidine-1-carbonyl]-amino}-2′-trifluoromethoxy-biphenyl-4-yl)-1H-imidazol-2-yl]-4-methyl-pyrrolidine-1-carbonyl}-2-methyl-propyl)-carbamic acid methyl ester] | – | – | < 0.1 | < 0.1 |
| COC(=O)N[C@H](C(=O)N1C[C@@H](C)C[C@H]1c1nc2c(ccc3cc(-c4ccc(NC(=O)N5CCN(C6CCN(C(=O)C7CC7)CC6)CC5)cc4OC(F)(F)F)ccc32)[nH]1)C(C)C [Example 16, ((S)-1-{(2S,4S)-2-[7-(4-{[4-(1-Cyclopropanecarbonyl-piperidin-4-yl)-piperazine-1-carbonyl]-amino}-2-trifluoromethoxy-phenyl)-3H-naphth[1,2-d]imidazol-2-yl]-4-methyl-pyrrolidine-1-carbonyl}-2-methyl-propyl)-carbamic acid methyl ester] | – | – | < 0.1 | < 0.1 |
| COC(=O)N[C@H](C(=O)N1C[C@@H](C)C[C@H]1c1nc(-c2ccc(-c3ccc(NC(=O)N4CCC(N5CCN(C(=O)C(C)(C)C)CC5)CC4)cc3OC(F)(F)F)cc2)c[nH]1)C1CCOCC1 [Example 17, [(S)-2-((2S,4S)-2-{4-[4′-({4-[4-(2,2-Dimethyl-propionyl)-piperazin-1-yl]-piperidine-1-carbonyl}-amino)-2′-trifluoromethoxy-biphenyl-4-yl]-1H-imidazol-2-yl}-4-methyl-pyrrolidin-1-yl)-2-oxo-1-(tetrahydro-pyran-4-yl)-ethyl]-carbamic acid methyl ester] | – | – | < 0.1 | 0.1 to 1 |
